Laboratory results published in ChEMBL document CHEMBL4622966, “Synthesis of Novel Ciprofloxacin-Based Hybrid Molecules toward Potent Antimalarial Activity” (ACS Med Chem Lett, 2020).
pIC50: −log10 of the molar value. Active and inactive are the calls of the source. No cut-off for these calls is given here.

Experiments:
Plasmodium falciparum [1] = test: Antimalarial activity against CQ-sensitive Plasmodium falciparum 3D7 assessed as inhibition of parasite growth; format: functional, organism-based
Plasmodium falciparum [2] = test: Antimalarial activity against CQ-resistant Plasmodium falciparum NF54-R assessed as inhibition of parasite growth; format: functional, organism-based
Plasmodium falciparum [3] = test: Antimalarial activity against CQ-sensitive Plasmodium falciparum 3D7 infected in human erythrocytes after 48 hrs by SYBR Green1 dye based fluorescence assay; format: functional, organism-based; details: 3D7, 48 h
Plasmodium falciparum [4] = test: Antimalarial activity against CQ-sensitive Plasmodium falciparum 3D7 infected in human erythrocytes after 96 hrs by SYBR Green1 dye based fluorescence assay; format: functional, organism-based; details: 3D7, 96 h
[5] = Lipophilicity, log P of the compound; format: physicochemical; details: octanol/water
Erythrocyte [6] = test: Hemolytic activity against uninfected human RBC at 10 to 45 uM; format: ADME, cell-based
Erythrocyte [7] = test: Hemolytic activity against human RBC infected with CQ-sensitive Plasmodium falciparum 3D7 at 10 to 45 uM; format: ADME, cell-based
Erythrocyte [8] = test: Hemolytic activity against human RBC infected with CQ-resistant Plasmodium falciparum W2 at 10 to 45 uM; format: ADME, cell-based
Plasmodium falciparum [9] = test: Antimalarial activity against CQ-resistant Plasmodium falciparum W2 infected in human erythrocytes after 48 hrs by SYBR Green1 dye based fluorescence assay; format: functional, organism-based; details: W2, 48 h
Plasmodium falciparum [10] = test: Antimalarial activity against CQ-resistant Plasmodium falciparum W2 infected in human erythrocytes after 96 hrs by SYBR Green1 dye based fluorescence assay; format: functional, organism-based; details: W2, 96 h
Plasmodium falciparum [11] = test: Resistance index, ratio of IC50 for antimalarial activity against CQ-resistant Plasmodium falciparum W2 infected in human erythrocytes after 48 hrs to IC50 for antimalarial activity against CQ-sensitive Plasmodium falciparum 3D7 infected in human erythrocytes after 48 hrs by SYBR Green1 dye based fluorescence assay; format: functional
Heme [12] = test: Binding affinity to monomeric heme at 100 nM to 4.5 uM after 24 hrs by UV-Visible Spectroscopic analysis
Plasmodium falciparum [13] = test: Potency index, ratio of ciprofloxacin IC50 to test compound IC50 for antimalarial activity against CQ-sensitive Plasmodium falciparum 3D7 infected in human erythrocytes after 48 hrs by SYBR Green1 dye based fluorescence assay; format: functional
Plasmodium falciparum [14] = test: Potency index, ratio of ciprofloxacin IC50 to test compound IC50 for antimalarial activity against CQ-sensitive Plasmodium falciparum 3D7 infected in human erythrocytes after 96 hrs by SYBR Green1 dye based fluorescence assay; format: functional
Plasmodium falciparum [15] = test: Potency index, ratio of ciprofloxacin IC50 to test compound IC50 for antimalarial activity against CQ-resistant Plasmodium falciparum W2 infected in human erythrocytes after 48 hrs by SYBR Green1 dye based fluorescence assay; format: functional
Plasmodium falciparum [16] = test: Potency index, ratio of ciprofloxacin IC50 to test compound IC50 for antimalarial activity against CQ-resistant Plasmodium falciparum W2 infected in human erythrocytes after 96 hrs by SYBR Green1 dye based fluorescence assay; format: functional
Plasmodium falciparum [17] = test: Potency index, ratio of chloroquine IC50 to test compound IC50 for antimalarial activity against CQ-resistant Plasmodium falciparum W2 infected in human erythrocytes after 48 hrs by SYBR Green1 dye based fluorescence assay; format: functional
NIH3T3 = test: Cytotoxicity against mouse NIH/3T3 cells up to 10 uM after 72 hrs by MTT assay; format: cell-based; details: nih3t3, 72 h
Plasmodium falciparum [18] = test: Antimalarial activity against synchronized ring stage of Plasmodium falciparum infected in human erythrocytes at 50 to 100 nM; format: functional, organism-based
Plasmodium falciparum [19] = test: Antimalarial activity against synchronized schizont stage of Plasmodium falciparum infected in human erythrocytes at 50 to 100 nM; format: functional, organism-based
Plasmodium falciparum [20] = test: Binding affinity to Gyrase in Plasmodium falciparum assessed as accumulation of single-stranded DNA binding protein at 25 nM after 96 hrs by Western blot analysis
Escherichia coli = test: Toxicity in Escherichia coli DH10B assessed as growth inhibition at 500 nM to 1 uM after 6 hrs; format: organism-based, str. K-12 substr. DH10B; details: in vivo, 0.5 µM
Plasmodium falciparum [21] = test: Antiplasmodial activity against Plasmodium falciparum infected in human erythrocytes assessed as reduction in hemozoin size at 50 to 100 nM after 48 hrs by giemsa staining based light microscopic analysis; format: functional, organism-based
Plasmodium falciparum [22] = test: Antimalarial activity against Plasmodium falciparum infected in human erythrocytes assessed as parasitemia at 1 to 10 nM after 48 hrs by SYBR Green1 dye based fluorescence assay; format: functional, organism-based
Plasmodium falciparum [23] = test: Antimalarial activity against Plasmodium falciparum infected in human erythrocytes assessed as parasitemia at 1 to 10 nM after 96 hrs by SYBR Green1 dye based fluorescence assay; format: functional, organism-based
Plasmodium falciparum [24] = test: Binding affinity to Gyrase in Plasmodium falciparum assessed as accumulation of single-stranded DNA binding protein at 15 uM after 96 hrs by Western blot analysis
Plasmodium falciparum [25] = test: Antimalarial activity against Plasmodium falciparum infected in human erythrocytes assessed as parasitemia at 1 to 15 uM after 48 hrs by SYBR Green1 dye based fluorescence assay; format: functional, organism-based
Plasmodium falciparum [26] = test: Antimalarial activity against Plasmodium falciparum infected in human erythrocytes assessed as parasitemia at 1 to 15 uM after 96 hrs by SYBR Green1 dye based fluorescence assay; format: functional, organism-based
Heme [27] = test: Binding affinity to monomeric heme after 24 hrs by UV-Visible Spectroscopic analysis
Plasmodium falciparum [28] = test: Antiplasmodial activity against Plasmodium falciparum infected in human erythrocytes assessed as reduction in hemozoin size at 30 nM after 48 hrs by giemsa staining based light microscopic analysis; format: functional, organism-based

Row | SMILES | pIC50 (Plasmodium falciparum [1]) | pIC50 (Plasmodium falciparum [2]) | pIC50 (Plasmodium falciparum [3]) | pIC50 (Plasmodium falciparum [4]) | logP [5] | Activity (Erythrocyte [6]) | Activity (Erythrocyte [7]) | Activity (Erythrocyte [8]) | pIC50 (Plasmodium falciparum [9]) | pIC50 (Plasmodium falciparum [10]) | further results
1 | Cc1c(F)c(N2CCNC(C)C2)cc2c1c(=O)c(C(=O)O)cn2C1CC1 (stereo not given) [GREPAFLOXACIN] | < 5.00 | < 5.00 |  |  |  |  |  |  |  |  | 
2 | CCOC(=O)c1cn(C2CC2)c2cc(N3CCN(c4c5ccc(Cl)cc5nc5ccc(OC)cc45)CC3)c(F)cc2c1=O |  |  | 6.44 | 6.51 | 6.31 | Non-Toxic | Non-Toxic | Non-Toxic |  |  | 
3 | CCOC(=O)c1cn(C2CC2)c2cc(N3CCN(C(=O)/C=C/c4ccccc4)CC3)c(F)cc2c1=O |  |  | 5.04 | 5.32 | 3.81 | Non-Toxic | Non-Toxic | Non-Toxic |  |  | 
4 | COc1c(N2C[C@@H]3CCCN[C@@H]3C2)c(F)cc2c(=O)c(C(=O)O)cn(C3CC3)c12 [MOXIFLOXACIN] | < 5.00 | < 5.00 |  |  |  |  |  |  |  |  | 
5 | CCOC(=O)c1cn(C2CC2)c2cc(N3CCN(c4ccnc5cc(Cl)ccc45)CC3)c(F)cc2c1=O |  |  | 7.59 | 7.87 | 5.02 | Non-Toxic | Non-Toxic | Non-Toxic | 7.20 | 7.51 | Ratio IC50 (Plasmodium falciparum [11]): 2.47; Activity (Heme [12]): inactive; Ratio IC50 (Plasmodium falciparum [13]): 1000; Ratio IC50 (Plasmodium falciparum [14]): 1000; Ratio IC50 (Plasmodium falciparum [15]): 200 - 700; Ratio IC50 (Plasmodium falciparum [16]): 200 - 700; Ratio IC50 (Plasmodium falciparum [17]): 3; Activity (NIH3T3): Non-Toxic; Activity (Plasmodium falciparum [18]): Active; Activity (Plasmodium falciparum [19]): Active; Activity (Plasmodium falciparum [20]): inactive; Activity (Escherichia coli): Non-Toxic; Activity (Plasmodium falciparum [21]): inactive; Activity (Plasmodium falciparum [22]): Active; Activity (Plasmodium falciparum [23]): Active
6 | CCOC(=O)c1cn(C2CC2)c2cc(N3CCN(S(=O)(=O)c4ccc(C(F)(F)F)cc4)CC3)c(F)cc2c1=O |  |  | 7.42 | 7.83 | 4.29 | Non-Toxic | Non-Toxic | Non-Toxic | 6.84 | 7.48 | Ratio IC50 (Plasmodium falciparum [11]): 3.88; Ratio IC50 (Plasmodium falciparum [13]): 1000; Ratio IC50 (Plasmodium falciparum [14]): 1000; Ratio IC50 (Plasmodium falciparum [15]): 200 - 700; Ratio IC50 (Plasmodium falciparum [16]): 200 - 700; Ratio IC50 (Plasmodium falciparum [17]): 7
7 | O=C(O)c1cn(C2CC2)c2cc(N3CCNCC3)c(F)cc2c1=O [CIPROFLOXACIN] |  |  | 4.34 | 4.58 |  |  |  |  | 4.43 | 4.64 | Activity (Heme [12]): inactive; Activity (Plasmodium falciparum [24]): Active; Activity (Plasmodium falciparum [25]): inactive; Activity (Plasmodium falciparum [26]): Active
8 | CCN(CC)CCCC(C)Nc1ccnc2cc(Cl)ccc12 (stereo not given) |  |  |  |  |  |  |  |  |  |  | Activity (Heme [27]): Dose-dependent effect; Activity (Plasmodium falciparum [28]): Active
9 | COc1c(N2CCNC(C)C2)c(F)cc2c(=O)c(C(=O)O)cn(C3CC3)c12 (stereo not given) [GATIFLOXACIN] | < 5.00 | < 5.00 |  |  |  |  |  |  |  |  | 
